Reference: US20170119776A1, “CHIRAL 2,5-DISUBSTITUTED CYCLOPENTANECARBOXYLIC ACID DERIVATIVES AND USE THEREOF” (BAYER PHARMA AKTIENGESELLSCHAFT, priority 2014, published 2017)

Columns and labels:
Format in all cases: biochemical
MMP-3 of the mouse = target: T1, MMP-3 of the mouse (Mus musculus, UniProt P28862); experiment: In vitro MMP-3 inhibition test of the mouse
T1 construct: purchased R&D Systems 548-MP
From the text: (§1) The activity strength of the compounds according to the invention towards other MMPs (and therefore their selectivity) is likewise ascertained in in vitro inhibition tests. The MMP-mediated amidolytic cleavage of a suitable peptide substrate also leads here to a fluorescent light increase. The signal intensity of the fluorescent light is directly proportional to the enzyme activity. The active concentration of a test compound at which half of the enzyme is inhibited (50% signal intensity of the fluorescent light) is given as IC50 value.
Recombinant MMP-3 of the mouse (R&D Systems, 548-MP) is chemically activated in accordance with the manufacturer's instructions using APMA. 1 μl of the test compound to be analysed (as a solution in DMSO, suitable concentrations e.g. 1 nM to 30 μM) is pipetted into 24 μl of activated enzyme (final concentration e.g. 0.5 nM) in reaction buffer (50 mM Tris/HCl pH 7.5, 10 mM CaCl2, 150 mM NaCl, 0.05% Brij®-35) in a white 384-hole microtiter plate (MTP). The enzymatic reaction is started by adding the intramolecularly quenched substrate Mca-Arg-Pro-Lys-Pro-Val-Glu-Nval-Trp-Arg-Lys(Dnp)-NH2 (final concentration e.g. 5 μM; R&D Systems, ES-002), such that a total test volume of 50 μl results. The progress of the MMP-3 reaction is measured by measuring the fluorescence intensity (excitation 320 nm, emission 410 nm) over a suitable period (e.g. over 120 min at a temperature of 32° C.).
(§2) Tables 3A and 3B below give the IC50 values from these tests for the inhibition of rodent MMPs for representative embodiment examples of the present invention and also for two structurally related comparison compounds from the prior art (as racemate and separated enantiomer)→(in part as average values from several independent individual determinations and rounded to two significant places). The IC50 values were determined for racemates and enantiomers from differently generated DMSO stock solutions. Whereas an automatically created DMSO stock solution from the internal substance logistics was used for racemates by means of a standard method, in the case of enantiomers, in each case a freshly produced, manually prepared DMSO stock solution was used for a more precise direct comparison of the enantiomers with one another.

MMP-2 of the mouse = target: T2, MMP-2 of the mouse (Mus musculus, UniProt P33434); experiment: In vitro MMP-2 inhibition test of the mouse
T2 construct: purchased R&D Systems 924-MP
T2 sequence (P33434 110-662): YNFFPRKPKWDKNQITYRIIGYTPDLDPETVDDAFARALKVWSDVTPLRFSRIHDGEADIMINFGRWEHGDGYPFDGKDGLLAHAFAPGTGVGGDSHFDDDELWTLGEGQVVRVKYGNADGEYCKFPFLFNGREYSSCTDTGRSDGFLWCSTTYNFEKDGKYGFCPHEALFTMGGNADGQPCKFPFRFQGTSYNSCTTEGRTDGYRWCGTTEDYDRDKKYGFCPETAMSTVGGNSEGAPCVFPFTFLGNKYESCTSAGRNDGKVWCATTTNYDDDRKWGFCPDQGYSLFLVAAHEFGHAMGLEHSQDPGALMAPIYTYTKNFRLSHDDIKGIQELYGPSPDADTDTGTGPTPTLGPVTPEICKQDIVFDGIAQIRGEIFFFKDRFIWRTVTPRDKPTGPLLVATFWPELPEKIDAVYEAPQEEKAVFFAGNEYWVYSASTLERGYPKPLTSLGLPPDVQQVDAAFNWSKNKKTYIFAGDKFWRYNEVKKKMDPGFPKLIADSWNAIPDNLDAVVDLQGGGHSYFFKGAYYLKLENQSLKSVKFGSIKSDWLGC
From the text: as §1
(§3) Recombinant MMP-2 of the mouse (R&D Systems, 924-MP) is chemically activated in accordance with the manufacturer's instructions using APMA. 1 μl of the test compound to be analysed (as a solution in DMSO, suitable concentrations e.g. 1 nM to 30 μM) is pipetted into 24 μl of activated enzyme (final concentration e.g. 0.1 nM) in reaction buffer (50 mM Tris/HCl pH 7.5, 10 mM CaCl2, 150 mM NaCl, 0.05% Brij®-35) in a white 384-hole microtiter plate (MTP). The enzymatic reaction is started by adding the intramolecularly quenched substrate Mca-Pro-Leu-Gly-Leu-Dpa(Dnp)-Ala-Arg-NH2 (final concentration e.g. 10 μM; R&D Systems, ES-001), such that a total test volume of 50 μl results. The progress of the MMP-2 reaction is measured by measuring the fluorescence intensity (excitation 320 nm, emission 410 nm) over a suitable period (e.g. over 120 min at a temperature of 32° C.).
as §2

MMP-12 of the rat = target: T3, MMP-12 of the rat (Rattus norvegicus, UniProt Q63341); experiment: In vitro MMP-12 inhibition test of the rat
T3 construct: MMP-12 of the rat (Uniprot NP_446415.1; construct L96-V277); made in house; host or cells: E. coli (BL21), pDEco7 vector
T3 sequence (Q63341 96-277): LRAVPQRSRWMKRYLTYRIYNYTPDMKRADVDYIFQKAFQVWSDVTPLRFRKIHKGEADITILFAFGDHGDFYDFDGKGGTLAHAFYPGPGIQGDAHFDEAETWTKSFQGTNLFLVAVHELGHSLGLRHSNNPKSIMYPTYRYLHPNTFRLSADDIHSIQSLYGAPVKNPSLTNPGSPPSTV
From the text: as §1
MMP-12 of the rat (Uniprot NP_446415.1; construct L96-V277) is expressed with an additional N-terminal His-Tag and a consecutive TEV cleavage sequence by means of a pDEco7 vector in E. coli (BL21). The thus recombinantly expressed protein forms an intracellular insoluble protein compartment (so-called inclusion body). This is solubilized after separation and intensive washing under denaturing conditions. For this, the inclusion body pellet fraction from a 250 ml E. coli culture is taken up in a volume of 120 ml of buffer A (50 mM Tris pH 7.4, 100 mM NaCl, 0.03 mM ZnCl2, 10 mM CaCl2, 8 M urea). The soluble protein is renatured by in each case dialysing 60 ml of the sample several times at 4-8° C. against buffer B (50 mM Tris pH 7.4, 100 mM NaCl, 0.03 mM ZnCl2, 10 mM CaCl2). After the dialysis, the sample is centrifuged (25 000×g). The folded-back protein is obtained in the supernatant with a yield of 3.7 mg per 250 ml E. coli culture. The thus obtained protein is enzymatically active without further purification operations or protease-mediated cleavage processes.
as §3, with “1” for “Recombinant MMP-2 of the mouse (R&D Systems, 924-MP) is chemically activated in accordance with the manufacturer's instructions using APMA. 1”, “of MMP-12 protein” for “of activated enzyme”, “e.g. 1” for “e.g. 0.1”, “e.g. 5” for “e.g. 10”, “the MMP-12” for “the MMP-2”
as §2

T1 sequence (P28862 100-477): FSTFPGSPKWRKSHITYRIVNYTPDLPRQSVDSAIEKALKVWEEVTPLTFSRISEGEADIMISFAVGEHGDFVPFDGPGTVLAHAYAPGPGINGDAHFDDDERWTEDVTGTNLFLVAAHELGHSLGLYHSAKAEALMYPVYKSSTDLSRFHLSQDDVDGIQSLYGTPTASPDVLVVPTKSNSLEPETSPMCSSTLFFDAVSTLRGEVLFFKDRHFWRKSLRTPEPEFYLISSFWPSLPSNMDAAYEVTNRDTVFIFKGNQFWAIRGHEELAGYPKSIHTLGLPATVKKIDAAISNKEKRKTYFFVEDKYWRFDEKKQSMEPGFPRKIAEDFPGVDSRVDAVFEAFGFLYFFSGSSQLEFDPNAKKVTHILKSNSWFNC

Row | Structure (SMILES) | IC50 (MMP-3 of the mouse) [µM] | IC50 (MMP-2 of the mouse) [µM] | IC50 (MMP-12 of the rat) [µM]
1 | O=C(O)[C@H]1[C@H](Cn2nnc3ccccc3c2=O)CC[C@@H]1C(=O)c1ccc(-c2ccc(Cl)cc2)cc1 (racemic) [Comparative Example A-1, (1RS,2RS,5SR)-2-[(4′-chlorobiphenyl-4-yl)carbonyl]-5-[(4-oxo-1,2,3-benzotriazin-3(4H)-yl)methyl]cyclopentanecarboxylic acid (racemate)] | 0.017 | 0.0013 | < 0.00061
2 | CCCCCOc1ccc(C(=O)CC(CCn2nnc3ccccc3c2=O)C(=O)O)cc1 (racemic) [Comparative Example B-1, (+/−)-4-Oxo-2-[2-(4-oxo-1,2,3-benzotriazin-3(4H)-yl)ethyl]-4-[4-(pentyloxy)phenyl]butanoic acid (racemate)] | 13 | 0.61 | 0.0293
3 | O=C(O)[C@H]1[C@H](Cn2nnc3ccccc3c2=O)CC[C@@H]1C(=O)c1ccc(OCc2ccccc2)cc1 (racemic) [Example 1, (+/−)-(1RS,2RS,5SR)-2-[4-(Benzyloxy)benzoyl]-5-[(4-oxo-1,2,3-benzotriazin-3(4H)-yl)methyl]cyclopentanecarboxylic acid (racemate)] | 0.29 | 0.033 | < 0.001
4 | CCCCCOc1ccc(C(=O)CC(CCn2nnc3ccccc3c2=O)C(=O)O)cc1 (single isomer, unassigned; enantiomer 1) [Comparative Example B-2, (+)-4-Oxo-2-[2-(4-oxo-1,2,3-benzotriazin-3(4H)-yl)ethyl]-4-[4-(pentyloxy)phenyl]butanoic acid (enantiomer 1)] | 6.75 | 0.145 | 0.0245
5 | O=C(O)[C@@H]1[C@@H](Cn2nnc3ccccc3c2=O)CC[C@H]1C(=O)c1ccc(-c2ccc(Cl)cc2)cc1 (single isomer, unassigned; enantiomer 2) [Comparative Example A-3, (1RS,2RS,5SR)-2-[(4′-Chlorobiphenyl-4-yl)carbonyl]-5-[(4-oxo-1,2,3-benzotriazin-3(4H)-yl)methyl]cyclopentanecarboxylic acid (enantiomer 2)] | 0.0113 | < 0.00061 | < 0.00061
6 | O=C(O)[C@H]1[C@H](Cn2nnc3ccccc3c2=O)CC[C@@H]1C(=O)c1ccc(OCc2ccccc2)cc1 [Example 2, (+)-(1S,2S,5R)-2-[4-(Benzyloxy)benzoyl]-5-[(4-oxo-1,2,3-benzotriazin-3(4H)-yl)methyl]cyclopentanecarboxylic acid] | 0.087 | 0.0165 | < 0.00061
